Measured values reported in patent publication US20200239921A1, “CHEMOENZYMATIC SYNTHESIS OF S-NUCLEOSYL AMINO ACIDS (SNA), ANALOGS OF S-ADENOSYL-L-METHIONINE AND S-ADENOSYL-L- HOMOCYSTEINE AND USES THEREOF” (ALBERT EINSTEIN COLLEGE OF MEDICINE, priority 2016, published 2020).

Key:
[1] = test system: AK/MK/PK enzymatic system; test: AK/MK/PK enzymatic conversion to nucleoside triphosphate; assay type: biochemical
[2] = target: T1, S-adenosyl-L-homocysteine hydrolase from Lupinus luteus (L/SAHH) (Lupinus luteus, UniProt Q9SP37); test: SAHH-catalysed synthesis of SAH analogs; assay type: biochemical; details: in vitro, reaction displaced toward SAH production
T1 construct: made in house; host or cells: E. coli
T1 sequence (Q9SP37 1-485): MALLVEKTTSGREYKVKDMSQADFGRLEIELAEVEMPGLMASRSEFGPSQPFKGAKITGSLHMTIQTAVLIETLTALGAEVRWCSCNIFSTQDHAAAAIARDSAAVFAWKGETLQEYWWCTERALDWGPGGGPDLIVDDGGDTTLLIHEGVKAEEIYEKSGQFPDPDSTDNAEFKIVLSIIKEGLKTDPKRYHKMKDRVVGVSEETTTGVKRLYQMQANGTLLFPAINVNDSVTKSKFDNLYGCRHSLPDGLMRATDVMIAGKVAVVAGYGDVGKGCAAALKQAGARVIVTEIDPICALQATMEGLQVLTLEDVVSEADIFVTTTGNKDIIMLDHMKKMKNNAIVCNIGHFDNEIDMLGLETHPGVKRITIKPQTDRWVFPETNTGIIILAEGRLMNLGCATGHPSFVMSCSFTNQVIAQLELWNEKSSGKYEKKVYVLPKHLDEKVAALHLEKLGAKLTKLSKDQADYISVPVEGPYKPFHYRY
Text: Alternative chemoenzymatic routes. A few SNA probes are difficult to prepare. To broaden the substrate diversity, the reversible reaction catalyzed by S-adenosyl-L-homocysteine hydrolase from Lupinus luteus (L/SAHH) that is displaced toward SAH production in vitro was used (FIG. 5B). […] This powerful catalyst was a useful tool for production of S-nucleosyl-L-homocysteine and S-nucleosyl-L-cysteine analogs (SNH and SNC, respectively). Unlike SAM analogs, SNH and SNC probes are not substrates for PRMTs, so they are assayed as competitive inhibitors.

[3] = target: T2, Methanococcus jannaschii MAT (MjMAT) (Methanocaldococcus jannaschii, UniProt Q58605); test: MjMAT substrate specificity (HPLC); assay type: biochemical; details: in the presence of ATP
T2 construct: made in house; host or cells: E. coli
T2 sequence (Q58605 1-406): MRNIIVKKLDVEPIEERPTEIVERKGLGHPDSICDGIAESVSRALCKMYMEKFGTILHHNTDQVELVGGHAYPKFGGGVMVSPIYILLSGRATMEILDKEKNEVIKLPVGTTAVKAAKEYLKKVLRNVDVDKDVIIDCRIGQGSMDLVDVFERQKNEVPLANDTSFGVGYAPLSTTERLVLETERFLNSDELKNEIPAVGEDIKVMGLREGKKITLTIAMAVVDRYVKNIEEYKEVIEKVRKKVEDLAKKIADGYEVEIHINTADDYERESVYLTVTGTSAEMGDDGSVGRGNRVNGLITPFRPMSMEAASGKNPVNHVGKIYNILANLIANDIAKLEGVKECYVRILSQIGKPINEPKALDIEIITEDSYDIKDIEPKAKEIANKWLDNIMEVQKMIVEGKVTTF
Description: Synthetic chemical approaches yield a 1:1 mixture of the two SAM stereoisomers (FIG. 4A, shaded middle frame). The enzymes that catalyze the formation of SAM from ATP and L-methionine in vivo are used to produce SAM analogs (MAT; FIG. 4A, top enzymatic approach). Adenosine phosphorylation is performed by kinases (e.g. adenosine kinase ‘AK’, myokinase ‘MK’ and pyruvate kinase ‘PK’; FIG. 4, top enzymatic approach). MAT proteins are well characterized and several mechanistic and structural biology reports make these enzymes the preferred biocatalyst for rapid access to SAM analogs. Methanococcus jannaschii MAT has been purified (MjMAT; FIG. 4B).
(§1) An enzyme array to incorporate a broad spectrum of methionine analogs. To expand the SNA library, the reactivity of several methionine analogs (FIG. 4C, amino-acid tail labelled ‘METHIONINE’) was screened toward MjMAT in the presence of ATP. […] MAT enzymes from Neisseria meningitidis (Nm) and Campylobacter jejuni (Cj) (FIG. 4B) were expressed and purified.

[4] = test system: MAT from Campylobacter jejuni (CjMAT); test: CjMAT methionine analog specificity; assay type: biochemical; details: FIG. 6
Text: as §1

[5] = test system: MAT from Neisseria meningitidis (NmMAT); test: NmMAT methionine analog specificity; assay type: biochemical; details: FIG. 6
Text: as §1

[6] = target: T3, SAM-dependent chlorinase from Salinispora tropica (StSalL) (Salinispora tropica, UniProt A4X3Q0); test: StSalL methionine analog specificity; assay type: biochemical; details: in the presence of 5′-chloro-5′-deoxy adenosine
T3 construct: made in house; host or cells: E. coli
T3 sequence (A4X3Q0 1-283): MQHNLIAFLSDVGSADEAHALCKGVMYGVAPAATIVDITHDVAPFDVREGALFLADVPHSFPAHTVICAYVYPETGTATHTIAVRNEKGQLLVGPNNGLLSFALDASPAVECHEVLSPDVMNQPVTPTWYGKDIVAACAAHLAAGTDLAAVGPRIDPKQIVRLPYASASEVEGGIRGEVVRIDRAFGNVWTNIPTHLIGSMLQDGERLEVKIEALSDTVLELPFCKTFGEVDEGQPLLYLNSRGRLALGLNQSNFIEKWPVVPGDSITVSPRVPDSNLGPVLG
Description: The unique SAM-dependent chlorinase from the marine organism Salinispora tropica (StSalL) is a key enzyme for salinosporamide A biosynthesis. Although the occurrence of high chloride concentration (i.e. 546 mM) in sea water shifts the chemical equilibrium away from SAM synthesis, this reaction is reversible in vitro. StSalL (FIG. 4B) was expressed and purified, and the methionine analog specificity for this enzyme was determined in the presence of 5′-chloro-5′-deoxy adenosine (5′-ClDA; FIG. 6).

PRMT1 = details: cited from earlier work
methyltransferases = details: FIG. 2 first row from table; cited from earlier work

Structure (SMILES): Nc1ncnc2c1ncn2[C@@H]1O[C@H](CO)[C@@H](O)[C@@H]1F [942′-deoxy-2′-fluoro-β-D-arabinofuranosylladenine]
- reactivity in AK/MK/PK enzymatic system [1]: low reactivity

Structure (SMILES): N[C@@H](CS)C(=O)O [L-cysteine]
- utilization as substrate by SAHH [2]: could utilize

Structure (SMILES): N[C@@H](CCS)C(=O)O [L-homocysteine]
- utilization as substrate by SAHH [2]: could utilize

Structure (SMILES): CSCC[C@H](N)C(=O)O [M0, L-methionine]
- reactivity of methionine analog toward MjMAT [3]: efficiently processed

Structure (SMILES): CSCC[C@@H](N)C(=O)O [M1, D-methionine]
- reactivity of methionine analog toward MjMAT [3]: efficiently processed

Structure (SMILES): CSCC[C@](C)(N)C(=O)O [M2, α-methyl-methionine]
- reactivity of methionine analog toward CjMAT [4]: substrate
- reactivity of methionine analog toward NmMAT [5]: substrate

Structure (SMILES): CSCC[C@H](N)CO [M3, (S)-(−)-methioniol]
- reactivity of methionine analog toward CjMAT [4]: excellent substrate

Structure (SMILES): CSCCC(O)C(=O)O (centres unmarked) [M4, 2-hydroxy-4-(methylthio) butanoic acid]
- reactivity of methionine analog toward CjMAT [4]: reactivity was not observed
- reactivity of methionine analog toward StSalL [6]: Reactivity was observed
- reactivity of methionine analog toward NmMAT [5]: reactivity was not observed
- reactivity of methionine analog toward MjMAT [3]: reactivity was not observed

Structure (SMILES): NCCCSC[C@H]1O[C@@H](n2cnc3c(N)ncnc32)[C@H](O)[C@@H]1O [S-(5′-adenosyl)-3-thiopropylamine]
- selectivity for PRMT1 over PRMT6 (PRMT1): 10 fold

Structure (SMILES): Nc1ncnc2c1ncn2[C@@H]1O[C@H](CSCC[C@H](N)C(=O)O)[C@@H](O)[C@H]1O [SAH, S-adenosyl-L-homocysteine]
- inhibition of methyltransferases (in words) (methyltransferases): potent, yet non-specific, inhibitor of methyltransferases
